Results on ten compounds are retold here after US20240390471A1, “COMPOUNDS AND ADJUVANT FORMULATIONS USEFUL IN PNEUMOCOCCAL VACCINES” (Merck Sharp & Dohme LLC, priority 2023, published 2024).

By EC50 is commonly meant the concentration needed to bring the measured effect to its halfway point.

The target of test [1] is T1, human TLR8 (Homo sapiens, UniProt Q9NR97).
T1 construct: host or cells: HEK-Blue 293 cells expressing human TLR8
T1 sequence (Q9NR97 27-1041): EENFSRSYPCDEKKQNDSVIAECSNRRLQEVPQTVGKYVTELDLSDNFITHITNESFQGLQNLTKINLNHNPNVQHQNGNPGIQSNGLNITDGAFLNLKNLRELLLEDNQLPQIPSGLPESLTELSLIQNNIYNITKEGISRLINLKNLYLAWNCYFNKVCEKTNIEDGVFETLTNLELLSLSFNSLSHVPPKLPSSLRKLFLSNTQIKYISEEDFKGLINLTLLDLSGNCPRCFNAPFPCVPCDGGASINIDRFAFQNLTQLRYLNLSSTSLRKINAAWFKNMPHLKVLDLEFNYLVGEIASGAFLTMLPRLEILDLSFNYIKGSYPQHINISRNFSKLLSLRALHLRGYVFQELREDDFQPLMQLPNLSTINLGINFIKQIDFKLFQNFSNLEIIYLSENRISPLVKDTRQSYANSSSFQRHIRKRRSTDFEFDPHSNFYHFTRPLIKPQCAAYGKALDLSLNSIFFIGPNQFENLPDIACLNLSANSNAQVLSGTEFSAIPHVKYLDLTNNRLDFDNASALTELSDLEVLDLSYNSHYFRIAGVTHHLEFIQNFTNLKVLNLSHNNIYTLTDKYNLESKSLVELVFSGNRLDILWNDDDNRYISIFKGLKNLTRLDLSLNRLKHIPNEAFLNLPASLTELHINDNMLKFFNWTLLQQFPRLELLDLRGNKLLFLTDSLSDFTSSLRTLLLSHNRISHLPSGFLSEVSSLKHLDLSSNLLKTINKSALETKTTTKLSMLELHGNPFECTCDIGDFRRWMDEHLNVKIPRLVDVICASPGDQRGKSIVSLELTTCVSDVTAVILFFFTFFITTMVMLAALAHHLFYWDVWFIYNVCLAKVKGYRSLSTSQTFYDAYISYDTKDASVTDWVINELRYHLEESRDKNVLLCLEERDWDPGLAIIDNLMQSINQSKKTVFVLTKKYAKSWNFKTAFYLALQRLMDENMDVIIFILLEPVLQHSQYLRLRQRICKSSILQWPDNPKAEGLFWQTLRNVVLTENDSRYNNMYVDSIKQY
As to the kind of experiment: Cell-based TLR 7/8 assay, HEK-Blue TLR8 cells (SEAP reporter). The conditions noted are these: based on Compound concentration only; Compounds formulated as SNEs; read-out: huTLR8 EC50 (converted). On the procedure:
(§1) HEK-Blue™ TLR7 and TLR8 cells (InvivoGen) were designed to assess the stimulation of TLR7 and TLR8 by monitoring the activation of NF-κB and AP-1. Compound B-1-SNE samples were diluted 1:2 across an 8-point titration in diluent buffer histidine/PS-20 in a sterile V-bottom plate. 20 μL of samples were transferred to corresponding wells of two flat bottom assay plates. Media was aspirated from HEK-Blue™ human TLR 7 and TLR 8 cells (T-75 flasks) and gently rinsed with pre-warmed (37° C.) DPBS for a total volume of 5 mL/flask. The DPBS was gently removed from the cells and cells were gently manually dislodged and resuspended in 2 mL of DPBS. Cell assay suspensions were then prepared at approximately 2.2×10^5 cells per mL of HEK-Blue™ detection medium (InvivoGen). 180 μL of cell suspension in detection medium was added to each well of the two flat bottom assay plates containing the diluted Compound B-1-SNE samples for a final dilution of sample equaling 1:10 (180 μL of cell suspension in detection medium and 20 μL of sample). The cells were then incubated at 37° C. in 5% CO2 for 20 hrs. The reporter gene, NF-Kb, induces the production of secreted embryonic alkaline phosphatase (SEAP) when stimulated and can be monitored using the vendor supplied SEAP detection kit. SEAP colorimetric changes were read at an absorbance of 640 nm using a SpectroMax Stakmax plate reader. […] EC50 values were calculated based on total Compound B-1-SNE concentration using GraphPad Prism Software and analyzed using agonist vs. response variable slope (four parameters) least squares fit.
(§2) Further to the description in Example 10, a cell-based activation system was used to assess activity of the Compound-formulated nanoemulsion systems, prepared as described in examples, supra. HEK-Blue™ TLR7 and TLR8 cells (InvivoGen) were designed to assess the stimulation of TLR7 and TLR8 by monitoring the activation of NF-κB and AP-1. Compound-SNE samples were diluted 1:2 across an 8-point titration in diluent buffer histidine/PS-20 in a sterile V-bottom plate. 20 μL of samples were transferred to corresponding wells of two flat bottom assay plates. Media was aspirated from HEK-Blue™ human TLR 7 and TLR 8 cells (T-75 flasks) and gently rinsed with pre-warmed (37° C.) DPBS for a total volume of 5 mL/flask. The DPBS was gently removed from the cells and cells were gently manually dislodged and resuspended in 2 mL of DPBS. Cell assay suspensions were then prepared at approximately 2.2×10^5 cells per mL of HEK-Blue™ detection medium (InvivoGen). 180 μL of cell suspension in detection medium was added to each well of the two flat bottom assay plates containing the diluted Compound-SNE samples for a final dilution of sample equaling 1:10 (180 μL of cell suspension in detection medium and 20 μL of sample). The cells were then incubated at 37° C. in 5% CO2 for 20 hrs. The reporter gene, NF-Kb, induces the production of secreted embryonic alkaline phosphatase (SLAP) when stimulated and can be monitored using the vendor supplied SLAP detection kit. SLAP colorimetric changes were read at an absorbance of 640 nm using a SpectroMax Stakmax plate reader. EC50s were calculated based on Compound concentration only, not total Compound-SNE concentration (Table 6) using GraphPad Prism Software and analyzed using agonist vs. response variable slope (four parameters) least squares fit.

The target of test [2] is T2, human TLR7 (Homo sapiens, UniProt Q9NYK1).
T2 construct: host or cells: HEK-Blue 293 cells expressing human TLR7
T2 sequence (Q9NYK1 27-1049): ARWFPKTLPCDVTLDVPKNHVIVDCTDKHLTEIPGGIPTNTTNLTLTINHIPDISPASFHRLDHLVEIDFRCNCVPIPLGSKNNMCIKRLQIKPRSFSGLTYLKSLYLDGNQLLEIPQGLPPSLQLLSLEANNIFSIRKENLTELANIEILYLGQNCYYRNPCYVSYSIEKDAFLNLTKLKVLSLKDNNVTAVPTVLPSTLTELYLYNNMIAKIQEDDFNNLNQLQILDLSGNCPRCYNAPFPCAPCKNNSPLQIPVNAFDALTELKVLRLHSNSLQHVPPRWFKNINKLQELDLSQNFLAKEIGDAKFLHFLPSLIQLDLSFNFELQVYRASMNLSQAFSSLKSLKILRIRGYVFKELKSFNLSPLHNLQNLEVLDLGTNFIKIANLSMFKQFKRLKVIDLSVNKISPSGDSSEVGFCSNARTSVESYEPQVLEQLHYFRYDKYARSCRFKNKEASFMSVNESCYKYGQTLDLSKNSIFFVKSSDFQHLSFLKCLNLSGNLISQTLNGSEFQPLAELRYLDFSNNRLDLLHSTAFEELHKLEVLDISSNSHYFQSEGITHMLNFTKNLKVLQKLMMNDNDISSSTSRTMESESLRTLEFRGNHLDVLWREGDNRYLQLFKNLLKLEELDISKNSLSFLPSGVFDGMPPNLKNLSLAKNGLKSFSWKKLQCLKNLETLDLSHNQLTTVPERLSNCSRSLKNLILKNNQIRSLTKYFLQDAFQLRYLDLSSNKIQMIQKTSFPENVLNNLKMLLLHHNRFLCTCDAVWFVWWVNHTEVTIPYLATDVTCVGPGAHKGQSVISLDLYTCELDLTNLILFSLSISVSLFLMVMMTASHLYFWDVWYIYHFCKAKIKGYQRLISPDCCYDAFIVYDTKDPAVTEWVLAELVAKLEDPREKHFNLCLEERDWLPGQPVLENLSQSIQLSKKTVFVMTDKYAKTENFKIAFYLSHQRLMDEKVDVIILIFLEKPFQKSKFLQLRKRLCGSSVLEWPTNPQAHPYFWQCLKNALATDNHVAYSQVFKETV
As to the kind of experiment: Cell-based TLR 7/8 assay, HEK-Blue TLR7 cells (SEAP reporter). The settings on record: based on Compound concentration only; Compounds formulated as SNEs; read-out: huTLR7 EC50 (converted). On the procedure: as §1, §2

For the compound `CCCCCCCCCCCCCCCCCC(=O)NCCCCC(=O)N1CCN(c2cc(OC)c(Cn3cc4nc(N)nc(NCCCC)c4n3)c(OC)c2)CC1` [Compound A-1, N-(5-(4-(4-((5-amino-7-(butylamino)-2H-pyrazolo[4,3-d]pyrimidin-2-yl)methyl)-3,5-dimethoxyphenyl)piperazin-1-yl)-5-oxopentyl)stearamide], the EC50 in test [1] was 5370 nM; in test [2] it was 14900 nM.

As for `CCCCCCCCCCCCCCCCCC(=O)NCCCCC(=O)N1CCN(c2cc(OC)c(Cn3cc4nc(N)nc(N[C@H](CO)CCC)c4n3)c(OC)c2)CC1` [Compound A-2, (S)—N-(5-(4-(4-((5-amino-7-((1-hydroxypentan-2-yl)amino)-2H-pyrazolo[4,3-d]pyrimidin-2-yl)methyl)-3,5-dimethoxyphenyl)piperazin-1-yl)-5-oxopentyl)stearamide], the EC50 was 454 nM in test [1] and 7530 nM in test [2].

Consider `CCCCCCCCCCCCCCCCCC(=O)NCCCCC(=O)N1CCN(c2ccc(Cn3cc4nc(N)nc(NCCCC)c4n3)c(OC)c2)CC1` [Compound B-1, N-(5-(4-(4-((5-amino-7-(butylamino)-2H-pyrazolo[4,3-d]pyrimidin-2-yl)methyl)-3-methoxyphenyl)piperazin-1-yl)-5-oxopentyl)stearamide], for which the EC50 in test [1] is 554 nM; in test [2] it was 837 nM.

For `CCCCCCCCCCCCCC(=O)NCCCCC(=O)N1CCN(c2ccc(Cn3cc4nc(N)nc(NCCCC)c4n3)c(OC)c2)CC1` [Compound B-2, N-(5-(4-(4-((5-amino-7-(butylamino)-2H-pyrazolo[4,3-d]pyrimidin-2-yl)methyl)-3-methoxyphenyl)piperazin-1-yl)-5-oxopentyl)tetradecanamide], the EC50 is 306 nM in test [1] and 208 nM in test [2].

As to `CCCCCCCC/C=C\CCCCCCCC(=O)NCCCCC(=O)N1CCN(c2ccc(Cn3cc4nc(N)nc(NCCCC)c4n3)c(OC)c2)CC1` [Compound B-3, N-(5-(4-(4-((5-amino-7-(butylamino)-2H-pyrazolo[4,3-d]pyrimidin-2-yl)methyl)-3-methoxyphenyl)piperazin-1-yl)-5-oxopentyl)oleamide], the EC50 in test [1] is 129 nM; in test [2], 155 nM.

Consider `CCCCC/C=C\C/C=C\CCCCCCCC(=O)NCCCCC(=O)N1CCN(c2ccc(Cn3cc4nc(N)nc(NCCCC)c4n3)c(OC)c2)CC1` [Compound B-4, (9Z,12Z)—N-(5-(4-(4-((5-amino-7-(butylamino)-2H-pyrazolo[4,3-d]pyrimidin-2-yl)methyl)-3-methoxyphenyl)piperazin-1-yl)-5-oxopentyl)octadeca-9,12-dienamide], for which the EC50 in test [1] and in test [2] was 389 nM throughout.

Regarding `CCCCCCCCCCCCCCCCCC(=O)NCCCCC(=O)N1CCCN(c2ccc(Cn3cc4nc(N)nc(NCCCC)c4n3)c(OC)c2)CC1` [Compound B-5, N-(5-(4-(4-((5-amino-7-(butylamino)-2H-pyrazolo[4,3-d]pyrimidin-2-yl)methyl)-3-methoxyphenyl)-1,4-diazepan-1-yl)-5-oxopentyl)stearamide], the results for the EC50 in test [1] and in test [2] were 4210 nM and 13400 nM, respectively.

Regarding `CCCCCCCCCCCCCCCCCC(=O)NCCCCC(=O)N1CCC(c2ccc(Cn3cc4nc(N)nc(NCCCC)c4n3)c(OC)c2)CC1` [Compound B-6, N-(5-(4-(4-((5-amino-7-(butylamino)-2H-pyrazolo[4,3-d]pyrimidin-2-yl)methyl)-3-methoxyphenyl)piperidin-1-yl)-5-oxopentyl)stearamide], the EC50 is 2590 nM in test [1] and 4190 nM in test [2].

For `CCCCCCCCCCCCCCCCCC(=O)NCCCCC(=O)N1CC(c2ccc(Cn3cc4nc(N)nc(NCCCC)c4n3)c(OC)c2)C1` [Compound B-7, N-(5-(3-(4-((5-amino-7-(butylamino)-2H-pyrazolo[4,3-d]pyrimidin-2-yl)methyl)-3-methoxyphenyl)azetidin-1-yl)-5-oxopentyl)stearamide], the EC50 was 3390 nM in test [1] and 8430 nM in test [2].

With `CCCCCCCCCCCCCCCCCC(=O)NCCCNC(=O)C1CCN(c2ccc(Cn3cc4nc(N)nc(NCCCC)c4n3)c(OC)c2)CC1` [Compound B-8, 1-(4-((5-amino-7-(butylamino)-2H-pyrazolo[4,3-d]pyrimidin-2-yl)methyl)-3-methoxyphenyl)-N-(3-stearamidopropyl)piperidine-4-carboxamide], the figures for the concentration giving a half-maximal response (EC50) in test [1] and in test [2] were 54000 nM and 64700 nM, respectively.
